For assay [1], the target named is T1, human Nav1.5 channels stably expressed in HEK 293 cells (Homo sapiens, UniProt Q14524).
T1 construct: expressed in transfected cells
Briefly: PatchXpress 7000 automated patch-clamp, sodium current. The class given is cell-based. To be noted: selectivity over Nav1.5. Put shortly:
(§1)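 IC50 values came from Hill-equation fits of rundown-corrected inhibition. PatchXpress recordings at 22° C held cells 20 mV negative to V0.5 inact and applied 10 Hz trains of 30 ms steps to −20 mV (Nav1.7) or an 8000 ms prepulse 7 mV positive to V0.5 inact. […]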

Assay [2] concerns the target T2, human Nav1.7 channels stably expressed in HEK 293 cells (Homo sapiens, UniProt Q15858).
T2 construct: expressed in transfected cells
The description is as above. The class given is cell-based. To be noted: 22° C., read-out: potency for the Nav 1.7 sodium ion channel (as measured by PatchXpress). An outline of the steps: as §1

This note sets out measurements from US9273040B2 (Merck Sharp & Dohme Corp., priority 2011, dated 2016).

T2 sequence (Q15858 whole entry): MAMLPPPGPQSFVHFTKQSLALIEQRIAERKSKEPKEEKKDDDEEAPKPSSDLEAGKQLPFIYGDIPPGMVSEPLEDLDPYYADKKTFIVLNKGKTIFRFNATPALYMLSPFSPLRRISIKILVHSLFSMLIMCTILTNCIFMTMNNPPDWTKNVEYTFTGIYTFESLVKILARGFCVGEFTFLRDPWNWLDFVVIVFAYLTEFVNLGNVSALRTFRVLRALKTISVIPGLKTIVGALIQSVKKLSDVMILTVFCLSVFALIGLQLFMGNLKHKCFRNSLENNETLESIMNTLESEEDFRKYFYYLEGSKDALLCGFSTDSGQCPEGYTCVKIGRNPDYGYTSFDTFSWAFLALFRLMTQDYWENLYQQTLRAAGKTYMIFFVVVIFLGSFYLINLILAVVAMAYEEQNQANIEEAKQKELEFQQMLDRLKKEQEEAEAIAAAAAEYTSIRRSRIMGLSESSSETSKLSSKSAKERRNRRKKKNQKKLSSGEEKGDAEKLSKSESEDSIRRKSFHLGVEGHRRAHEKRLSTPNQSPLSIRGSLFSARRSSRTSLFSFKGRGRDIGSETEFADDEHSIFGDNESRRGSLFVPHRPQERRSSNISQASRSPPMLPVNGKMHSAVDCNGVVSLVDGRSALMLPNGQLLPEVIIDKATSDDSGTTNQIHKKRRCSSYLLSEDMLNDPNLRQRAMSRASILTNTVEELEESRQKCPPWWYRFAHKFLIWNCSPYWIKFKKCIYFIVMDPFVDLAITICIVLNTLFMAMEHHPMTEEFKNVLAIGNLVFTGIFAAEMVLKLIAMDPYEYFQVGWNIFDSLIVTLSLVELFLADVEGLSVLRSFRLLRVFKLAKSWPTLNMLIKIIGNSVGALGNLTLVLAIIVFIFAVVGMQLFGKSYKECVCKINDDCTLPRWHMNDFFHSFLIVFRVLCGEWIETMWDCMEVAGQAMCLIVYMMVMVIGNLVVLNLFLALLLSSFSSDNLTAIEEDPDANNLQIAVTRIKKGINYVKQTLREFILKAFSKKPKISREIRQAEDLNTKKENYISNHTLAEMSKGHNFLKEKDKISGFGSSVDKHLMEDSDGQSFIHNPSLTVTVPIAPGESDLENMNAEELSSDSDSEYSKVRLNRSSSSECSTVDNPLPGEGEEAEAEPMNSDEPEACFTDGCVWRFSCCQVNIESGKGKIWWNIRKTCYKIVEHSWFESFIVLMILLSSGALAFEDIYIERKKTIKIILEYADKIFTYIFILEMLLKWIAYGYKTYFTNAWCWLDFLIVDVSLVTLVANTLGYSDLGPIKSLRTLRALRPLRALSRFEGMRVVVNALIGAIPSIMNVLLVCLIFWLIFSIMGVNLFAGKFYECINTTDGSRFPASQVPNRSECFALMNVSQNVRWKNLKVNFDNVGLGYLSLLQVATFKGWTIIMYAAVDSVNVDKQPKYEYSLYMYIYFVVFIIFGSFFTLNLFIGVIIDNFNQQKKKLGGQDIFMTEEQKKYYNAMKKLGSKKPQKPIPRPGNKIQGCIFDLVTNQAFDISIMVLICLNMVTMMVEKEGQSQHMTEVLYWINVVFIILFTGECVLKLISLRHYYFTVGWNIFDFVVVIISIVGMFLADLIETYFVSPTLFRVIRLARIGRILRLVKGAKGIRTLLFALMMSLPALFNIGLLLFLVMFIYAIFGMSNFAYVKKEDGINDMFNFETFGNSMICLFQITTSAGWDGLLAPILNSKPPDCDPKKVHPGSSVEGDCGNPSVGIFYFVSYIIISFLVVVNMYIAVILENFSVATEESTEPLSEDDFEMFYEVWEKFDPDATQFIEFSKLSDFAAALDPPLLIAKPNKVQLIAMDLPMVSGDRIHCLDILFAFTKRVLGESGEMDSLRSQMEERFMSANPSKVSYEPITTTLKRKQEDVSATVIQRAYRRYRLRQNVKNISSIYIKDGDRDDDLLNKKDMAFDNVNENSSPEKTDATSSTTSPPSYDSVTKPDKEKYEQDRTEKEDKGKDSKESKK
T1 sequence (Q14524 whole entry): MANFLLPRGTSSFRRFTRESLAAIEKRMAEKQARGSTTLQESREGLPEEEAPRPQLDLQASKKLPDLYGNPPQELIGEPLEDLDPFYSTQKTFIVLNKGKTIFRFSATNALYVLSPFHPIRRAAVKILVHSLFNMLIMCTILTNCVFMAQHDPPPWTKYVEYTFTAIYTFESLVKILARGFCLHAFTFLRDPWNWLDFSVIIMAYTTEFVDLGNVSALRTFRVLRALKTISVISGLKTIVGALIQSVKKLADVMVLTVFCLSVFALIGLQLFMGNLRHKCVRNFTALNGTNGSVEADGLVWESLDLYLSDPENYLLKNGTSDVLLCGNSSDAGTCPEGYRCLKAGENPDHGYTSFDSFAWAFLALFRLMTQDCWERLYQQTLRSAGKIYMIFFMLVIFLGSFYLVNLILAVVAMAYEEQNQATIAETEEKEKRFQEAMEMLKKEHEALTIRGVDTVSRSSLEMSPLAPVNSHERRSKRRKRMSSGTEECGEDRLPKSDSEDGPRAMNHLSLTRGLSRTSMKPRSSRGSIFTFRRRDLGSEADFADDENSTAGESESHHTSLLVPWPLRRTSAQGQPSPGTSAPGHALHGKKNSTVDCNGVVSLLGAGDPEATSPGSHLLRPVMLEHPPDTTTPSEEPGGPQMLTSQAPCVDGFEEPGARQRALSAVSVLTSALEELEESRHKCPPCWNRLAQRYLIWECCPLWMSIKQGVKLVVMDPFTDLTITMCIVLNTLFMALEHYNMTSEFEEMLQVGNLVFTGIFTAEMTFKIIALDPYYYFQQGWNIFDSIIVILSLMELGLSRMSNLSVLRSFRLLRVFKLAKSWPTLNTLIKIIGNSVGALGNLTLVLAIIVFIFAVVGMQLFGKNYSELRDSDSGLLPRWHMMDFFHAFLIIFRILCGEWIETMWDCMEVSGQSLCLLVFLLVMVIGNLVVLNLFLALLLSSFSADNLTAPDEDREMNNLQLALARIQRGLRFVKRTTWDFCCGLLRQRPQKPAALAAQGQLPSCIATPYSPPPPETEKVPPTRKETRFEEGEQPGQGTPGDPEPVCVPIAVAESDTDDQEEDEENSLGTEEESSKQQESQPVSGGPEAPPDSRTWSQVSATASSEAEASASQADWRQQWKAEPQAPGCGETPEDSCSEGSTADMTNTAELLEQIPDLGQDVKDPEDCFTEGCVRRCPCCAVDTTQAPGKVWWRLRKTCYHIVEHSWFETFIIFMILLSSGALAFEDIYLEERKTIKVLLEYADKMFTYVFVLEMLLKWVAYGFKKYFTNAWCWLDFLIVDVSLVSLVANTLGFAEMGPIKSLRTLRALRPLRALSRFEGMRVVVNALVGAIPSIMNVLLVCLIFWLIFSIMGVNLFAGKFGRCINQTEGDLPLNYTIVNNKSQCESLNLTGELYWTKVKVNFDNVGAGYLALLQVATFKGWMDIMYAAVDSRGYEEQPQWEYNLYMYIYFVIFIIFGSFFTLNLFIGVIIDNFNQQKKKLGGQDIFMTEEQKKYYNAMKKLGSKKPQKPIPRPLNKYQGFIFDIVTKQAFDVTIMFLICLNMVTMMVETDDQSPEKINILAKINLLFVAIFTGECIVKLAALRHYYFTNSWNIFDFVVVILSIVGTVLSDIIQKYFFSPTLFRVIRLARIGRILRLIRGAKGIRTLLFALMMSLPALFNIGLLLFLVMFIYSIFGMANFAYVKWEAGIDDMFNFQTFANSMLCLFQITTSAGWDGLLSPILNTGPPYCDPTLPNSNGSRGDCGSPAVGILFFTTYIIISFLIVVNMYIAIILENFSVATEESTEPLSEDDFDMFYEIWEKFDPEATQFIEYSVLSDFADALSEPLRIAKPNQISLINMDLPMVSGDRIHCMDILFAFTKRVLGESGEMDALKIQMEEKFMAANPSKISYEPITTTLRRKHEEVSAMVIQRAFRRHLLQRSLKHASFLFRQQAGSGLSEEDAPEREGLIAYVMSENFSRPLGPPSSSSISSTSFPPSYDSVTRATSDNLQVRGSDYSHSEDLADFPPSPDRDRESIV

In the case of `CC(c1cccc(-c2ccnn2C)c1)n1c(=O)oc2cc(S(=O)(=O)Nc3ncns3)c(F)cc21` (centres unmarked) [Compound 13-10, 5-fluoro-3-{1-[3-(1-methyl-1H-pyrazol-5-yl)phenyl]ethyl}-2-oxo-N-1,2,4-thiadiazol-5-yl-2,3-dihydro-1,3-benzoxazole-6-sulfonamide], the “ratio of Nav 1.5:Nav 1.7 potency, determined by PatchXpress measurement” value (shortened to “ratio of Nav 1.5:Nav 1.7 potency”) in assay [1] came to 256. In addition, the IC50 in assay [2] stood at 63 nM.
For the compound `NC1Cc2cccc(Cn3c(=O)oc4cc(S(=O)(=O)Nc5ncns5)c(F)cc43)c2C1` (racemic) [Compound 23-17, (+/−)-3-[(2-amino-2,3-dihydro-1H-inden-4-yl)methyl]-5-fluoro-2-oxo-N-1,2,4-thiadiazol-5-yl-2,3-dihydro-1,3-benzoxazole-6-sulfonamide], the “ratio of Nav 1.5:Nav 1.7 potency” value in assay [1] came to 321. The IC50 in assay [2] is 50 nM.
On to `O=c1oc2cc(S(=O)(=O)Nc3ncns3)c(F)cc2n1C[C@H]1C[C@@H]1I` [Compound 11-9, 5-fluoro-3-{[(1R,2S)-2-iodocyclopropyl]methyl}-2-oxo-N-1,2,4-thiadiazol-5-yl-2,3-dihydro-1,3-benzoxazole-6-sulfonamide], for which the “ratio of Nav 1.5:Nav 1.7 potency” value in assay [1] was found to be 56. In assay [2], the IC50 was 301 nM.
Regarding `NC1CCc2c(cccc2Cn2c(=O)oc3cc(S(=O)(=O)Nc4ncns4)c(F)cc32)C1` (racemic) [Compound 23-8, (+/−)-3-[(6-amino-5,6,7,8-tetrahydronaphthalen-1-yl)methyl]-5-fluoro-2-oxo-N-1,2,4-thiadiazol-5-yl-2,3-dihydro-1,3-benzoxazole-6-sulfonamide], in assay [1], the “ratio of Nav 1.5:Nav 1.7 potency” value was 161. The IC50 in assay [2] was 186 nM.
Turning to `O=c1oc2cc(S(=O)(=O)Nc3ncns3)c(F)cc2n1[C@@H]1C[C@@H](c2ccccc2)Oc2ccccc21` [Compound 39-15, 5-fluoro-2-oxo-3-[(2S,4R)-2-phenyl-3,4-dihydro-2H-chromen-4-yl]-N-1,2,4-thiadiazol-5-yl-2,3-dihydro-1,3-benzoxazole-6-sulfonamide], the “ratio of Nav 1.5:Nav 1.7 potency” value in assay [1] is 36. The IC50 in assay [2] was 54 nM.
`Nc1cccc2c1CCCC2n1c(=O)oc2cc(S(=O)(=O)Nc3nccs3)c(F)cc21` (centres unmarked) [Compound 43-13, 3-(5-amino-1,2,3,4-tetrahydronaphthalen-1-yl)-5-fluoro-2-oxo-N-1,3-thiazol-2-yl-2,3-dihydro-1,3-benzoxazole-6-sulfonamide]: in assay [1], the “ratio of Nav 1.5:Nav 1.7 potency” value was 74. Further, the IC50 in assay [2] was 405 nM.
Regarding `C[C@H](c1ccccc1CN(C)C)n1c(=O)oc2cc(S(=O)(=O)Nc3ncns3)c(F)cc21` [Compound 18-5, 3-[(1R)-1-{2-[(dimethylamino)methyl]phenyl}ethyl]-5-fluoro-2-oxo-N-1,2,4-thiadiazol-5-yl-2,3-dihydro-1,3-benzoxazole-6-sulfonamide], in assay [1], the “ratio of Nav 1.5:Nav 1.7 potency” value is listed as 525. In assay [2], the IC50 worked out at 13 nM.
For the compound `C[C@@H](c1ccccc1C1CNC1)n1c(=O)oc2cc(S(=O)(=O)Nc3nccs3)c(F)cc21` [Compound 43-20, 3-[(1S)-1-(2-azetidin-3-ylphenyl)ethyl]-5-fluoro-2-oxo-N-1,3-thiazol-2-yl-2,3-dihydro-1,3-benzoxazole-6-sulfonamide], in assay [1], the “ratio of Nav 1.5:Nav 1.7 potency” value came to 48. Further, in assay [2], the IC50 is 621 nM.
For the compound `O=c1oc2cc(S(=O)(=O)Nc3ncns3)c(F)cc2n1[C@H]1CC2(CCC2)Oc2ccccc21` [Compound 39-16, 3-[(4S)-3,4-dihydrospiro[chromene-2,1′-cyclobutan]-4-yl]-5-fluoro-2-oxo-N-1,2,4-thiadiazol-5-yl-2,3-dihydro-1,3-benzoxazole-6-sulfonamide], the “ratio of Nav 1.5:Nav 1.7 potency” value in assay [1] is listed as 149. Also, the IC50 in assay [2] stood at 53 nM.
With `O=c1oc2cc(S(=O)(=O)Nc3ncns3)c(F)cc2n1Cc1cccc2c1CC(N1CCC(F)(F)C1)CC2` (racemic) [Compound 23-5, (+/−)-3-{[7-(3,3-difluoropyrrolidin-1-yl)-5,6,7,8-tetrahydronaphthalen-1-yl]methyl}-5-fluoro-2-oxo-N-1,2,4-thiadiazol-5-yl-2,3-dihydro-1,3-benzoxazole-6-sulfonamide], the “ratio of Nav 1.5:Nav 1.7 potency” value in assay [1] was 78. For the same compound, the IC50 in assay [2] was 278 nM.
As for `C[C@H](c1cccc2c1CC(N)CC2)n1c(=O)oc2cc(S(=O)(=O)Nc3ncns3)c(F)cc21` (single isomer, unassigned) [Compound 23-25, (R or S)-3-[(1R)-1-(7-amino-5,6,7,8-tetrahydronaphthalen-1-yl)ethyl]-5-fluoro-2-oxo-N-1,2,4-thiadiazol-5-yl-2,3-dihydro-1,3-benzoxazole-6-sulfonamide], in assay [1], the “ratio of Nav 1.5:Nav 1.7 potency” value is listed as 203. In assay [2], the IC50 was determined as 15 nM.
The matching figures for `O=c1oc2cc(S(=O)(=O)Nc3ncns3)c(F)cc2n1C1CC2(CCN(Cc3ccccc3)CC2)Oc2ccccc21` (centres unmarked) [Compound 39-11, 3-(1′-benzyl-3,4-dihydrospiro[chromene-2,4′-piperidin]-4-yl)-5-fluoro-2-oxo-N-1,2,4-thiadiazol-5-yl-2,3-dihydro-1,3-benzoxazole-6-sulfonamide]: 114 and 166 nM.
The matching figures for `CC(=O)OCC(=O)NC1CCc2cccc(Cn3c(=O)oc4cc(S(=O)(=O)Nc5ncns5)c(F)cc43)c2C1` (single isomer, unassigned) [Compound 23-4, (R or S)-2-[(8-{[5-fluoro-2-oxo-6-(1,2,4-thiadiazol-5-ylsulfamoyl)-1,3-benzoxazol-3(2H)-yl]methyl}-1,2,3,4-tetrahydronaphthalen-2-yl)amino]-2-oxoethyl acetate]: 97 and 310 nM.
As to `O=c1oc2cc(S(=O)(=O)Nc3ncns3)c(F)cc2n1[C@H](CO)c1ccccc1` [Compound 13-12, 5-fluoro-3-[(1S)-2-hydroxy-1-phenylethyl]-2-oxo-N-1,2,4-thiadiazol-5-yl-2,3-dihydro-1,3-benzoxazole-6-sulfonamide], in assay [1], the “ratio of Nav 1.5:Nav 1.7 potency” value is above 71. In addition, the IC50 in assay [2] is 422 nM.
Turning to `CC(c1cccc2c1CC(N)CC2)n1c(=O)oc2cc(S(=O)(=O)Nc3ncns3)c(F)cc21` (racemic) [Compound 23-24, (R,R and S,R) or (R,S and S,S)-3-[1-(7-amino-5,6,7,8-tetrahydronaphthalen-1-yl)ethyl]-5-fluoro-2-oxo-N-1,2,4-thiadiazol-5-yl-2,3-dihydro-1,3-benzoxazole-6-sutfonamide], the “ratio of Nav 1.5:Nav 1.7 potency” value in assay [1] is 1119. In addition, the IC50 in assay [2] turned out to be 15 nM.
As to `C[C@H](c1ccccc1C#CC1CNC1)n1c(=O)oc2cc(S(=O)(=O)Nc3ncns3)c(F)cc21` [Compound 17-16, 3-{(1R)-1-[2-(azetidin-3-ylethynyl)phenyl]ethyl}-5-fluoro-2-oxo-N-1,2,4-thiadiazol-5-yl-2,3-dihydro-1,3-benzoxazole-6-sulfonamide], in assay [1], the “ratio of Nav 1.5:Nav 1.7 potency” value is on record as 973. For the same compound, the IC50 in assay [2] is 31 nM.
On to `C[C@H](c1cccc(C#CC2(N)CCCCC2)c1)n1c(=O)oc2cc(S(=O)(=O)Nc3ncns3)c(F)cc21` [Compound 30-4], for which, in assay [1], the “ratio of Nav 1.5:Nav 1.7 potency” value is 309. Moreover, in assay [2], the IC50 amounted to 10 nM.
The matching figures for `O=c1oc2cc(S(=O)(=O)Nc3nccs3)c(F)cc2n1Cc1cccc2c1CNCC2F` (single isomer, unassigned) [Compound 43-27, (R or S)-5-fluoro-3-[(4-fluoro-1,2,3,4-tetrahydroisoquinolin-8-yl)methyl]-2-oxo-N-1,3-thiazol-2-yl-2,3-dihydro-1,3-benzoxazole-6-sulfonamide]: 282 and 106 nM.
Take `NC1CCc2cccc(Cn3c(=O)oc4cc(S(=O)(=O)Nc5ncns5)ccc43)c2C1` (single isomer, unassigned) [Compound 23-10, (R or S)-3-[(7-amino-5,6,7,8-tetrahydronaphthalen-1-yl)methyl]-2-oxo-N-1,2,4-thiadiazol-5-yl-2,3-dihydro-1,3-benzoxazole-6-sulfonamide]: the “ratio of Nav 1.5:Nav 1.7 potency” value in assay [1] was 167. Moreover, in assay [2], the IC50 was 179 nM.
With `O=c1oc2cc(S(=O)(=O)Nc3ncns3)c(F)cc2n1Cc1cccc2c1CC(N1CCOCC1)CC2` (racemic) [Compound 23-16, (+/−)-5-fluoro-3-[(7-morpholin-4-yl-5,6,7,8-tetrahydronaphthalen-1-yl)methyl]-2-oxo-N-1,2,4-thiadiazol-5-yl-2,3-dihydro-1,3-benzoxazole-6-sulfonamide], the “ratio of Nav 1.5:Nav 1.7 potency” value in assay [1] amounted to 431. Moreover, the IC50 in assay [2] was determined as 70 nM.
The matching figures for `O=c1oc2cc(S(=O)(=O)Nc3nccs3)c(F)cc2n1C1CC2(CCC2)Oc2ccc(Br)cc21` (centres unmarked) [Compound 43-10, 3-(6-bromo-3,4-dihydrospiro[chromene-2,1′-cyclobutan]-4-yl)-5-fluoro-2-oxo-N-1,3-thiazol-2-yl-2,3-dihydro-1,3-benzoxazole-6-sulfonamide]: 29 and 58 nM.
As to `O=c1oc2cc(S(=O)(=O)Nc3ncns3)c(F)cc2n1Cc1cccc2c1CC(N1CCCC1)CC2` (racemic) [Compound 23-20, (+/−)-5-fluoro-2-oxo-3-[(7-pyrrolidin-1-yl-5,6,7,8-tetrahydronaphthalen-1-yl)methyl]-N-1,2,4-thiadiazol-5-yl-2,3-dihydro-1,3-benzoxazole-6-sulfonamide], the “ratio of Nav 1.5:Nav 1.7 potency” value in assay [1] worked out at 802. In assay [2], the IC50 worked out at 30 nM.
